{"source": "patent EP1054594B1", "about": "“INOTROPIC AND DIURETIC EFFECTS OF EXENDIN AND GLP-1” (AMYLIN PHARMACEUTICALS, INC., priority 1998, dated 2007)", "key": {"[1]": {"assay": "Arterial blood pressure and dP/dt in conscious rats by telemetry", "assay_type": "in vivo, Male, Harlan Sprague Dawley rats", "conditions": "single intraperitoneal (ip) injection (100 µl)", "source_text": "Insertion of Transducers: Male, Harlan Sprague Dawley rats were anesthetized with halothane and the abdominal aorta exposed after laparotomy. According to procedures detailed in the \"Pressure Telemetry\" manual from Data Sciences Inc., pressure transducer/transmitters were secured in place on the abdominal wall with the catheter tip in the abdominal aorta ~2mm above bifurcation. Following closure, the animals then recovered to allow at least 7 days of stable recordings. Baseline data were collected during the 7+ days after surgery.\nThe transmitted signals were recorded via telemetry and stored on a personal computer. Rate of pressure change, dP/dt, was calculated by software provided by Data Sciences."}, "[2]": {"assay": "Diuretic effects of GLP-1 or exendin in anesthetized rats (urine flow, sodium excretion, urinary potassium after intravenous bolus)", "assay_type": "in vivo, Male, Harlan Sprague Dawley rats", "method": "Surgical preparation: The preparation used here was as described in Young et al., (Drug Dev Res. 37:231-248, 1996), but modified by the addition of unilateral ureteral cannulation. Anesthesia was induced with 5% halothane, maintained with 2% halothane during surgery and with 0.7 to 1% thereafter. Tracheotomy and cannulation of a femoral artery, saphenous vein and a single ureter were performed. […] The venous line was used for drug administration. Total saline infusion rate was kept at 4 mL/hr.\nObservations are expressed as the percent of baseline, defined as the mean of measurements made in the 30 min prior to starting peptide or vehicle infusion. Data are expressed as mean±SEM. n=5-6.\nUnilateral urine flow was measured by weighing the 15-minute output of the cannulated ureter. Total urine flow was estimated as twice this amount.\nTreatments: To obtain dose-responses, peptides were dissolved in 0.15 M NaCl and administered as 0.1 ml bolus."}}}
{"smiles": "CC[C@H](C)[C@H](NC(=O)[C@H](Cc1ccccc1)NC(=O)[C@H](CCC(=O)O)NC(=O)[C@H](CCCCN)NC(=O)[C@H](C)NC(=O)[C@H](C)NC(=O)[C@H](CCC(N)=O)NC(=O)CNC(=O)[C@H](CCC(=O)O)NC(=O)[C@H](CC(C)C)NC(=O)[C@H](Cc1ccc(O)cc1)NC(=O)[C@H](CO)NC(=O)[C@H](CO)NC(=O)[C@@H](NC(=O)[C@H](CC(=O)O)NC(=O)[C@H](CO)NC(=O)[C@@H](NC(=O)[C@H](Cc1ccccc1)NC(=O)[C@@H](NC(=O)CNC(=O)[C@H](CCC(=O)O)NC(=O)[C@H](C)NC(=O)[C@@H](N)Cc1c[nH]cn1)[C@@H](C)O)[C@@H](C)O)C(C)C)C(=O)N[C@@H](C)C(=O)N[C@@H](Cc1c[nH]c2ccccc12)C(=O)N[C@@H](CC(C)C)C(=O)N[C@H](C(=O)N[C@@H](CCCCN)C(=O)NCC(=O)N[C@@H](CCCNC(=N)N)C(N)=O)C(C)C", "note": "[GLP-1]", "values": [{"measurement": "cardiac contractility (dP/dt)", "setting": "[1]", "result": "increase"}, {"measurement": "mean arterial pressure", "setting": "[1]", "result": "increase"}, {"measurement": "sodium excretion", "setting": "[2]", "result": "increased"}]}
